These results are taken from PubChem BioAssay AID270 (DTP/NCI, 2004).

“And” between values parts separate entries of the source, which are not always exact repeats. Equal values may be shown once. Inconclusive results are not listed.

The test deals with BDF1 mice, s.c. Lewis lung carcinoma, T/C %. Put plainly: NCI In Vivo Anticancer Drug Screen. Data for tumor model Lewis Lung Carcinoma (subcutaneous) in B6D2F1 (BDF1) mice. The essentials: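 Tumor-bearing mice were treated with test compound, and either survival or tumor size was recorded. Values are the treated-group measurement divided by that of the vehicle-treated control group.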

Where [1] appears, read: endpoint: median survival time, dose: 6.25 mg/kg/injection, schedule: Q01DX009 (ip), vehicle: saline with Tween-80, higher = longer survival.
[2] abbreviates: endpoint: median survival time, dose: 12.5 mg/kg/injection, schedule: Q01DX009 (ip), vehicle: saline with Tween-80, higher = longer survival.

With `CCC[CH2][Sn]1([CH2]CCC)[O]C(=O)C[S]1`, the T/C was 88 % of control (endpoint: mean tumor weight, dose: 4.0 mg/kg/injection, schedule: Q01DX011 (ip), vehicle: saline, higher = larger tumour); 50 % of control (endpoint: mean tumor weight, dose: 8.0 mg/kg/injection, schedule: Q01DX011 (ip), vehicle: saline, higher = larger tumour); 100 % of control (endpoint: mean tumor weight, dose: 16.0 mg/kg/injection, schedule: Q01DX011 (ip), vehicle: saline, higher = larger tumour).

As for `COC1C(O)CC(OC2CC(Oc3cc4cc5c(c(O)c4c(O)c3C)C(=O)[C@@H](OC3CC(OC4CC(OC6CC(C)(O)C(OC(C)=O)C(C)O6)C(O)C(C)O4)C(O)C(C)O3)[C@H]([C@H](OC)C(=O)[C@@H](O)[C@@H](C)O)C5)OC(C)C2OC(C)=O)OC1C` (some centres not stated), the T/C is 93 % of control (endpoint: mean tumor weight, dose: 33.0 micrograms/kg/injection, schedule: Q01DX011 (ip), vehicle: saline with Tween-80, higher = larger tumour); 82 % of control (endpoint: mean tumor weight, dose: 65.0 micrograms/kg/injection, schedule: Q01DX011 (ip), vehicle: saline with Tween-80, higher = larger tumour); 66 % of control (endpoint: mean tumor weight, dose: 130.0 micrograms/kg/injection, schedule: Q01DX011 (ip), vehicle: saline with Tween-80, higher = larger tumour); 107 % of control (endpoint: median survival time, dose: 0.02 mg/kg/injection, schedule: Q01DX011 (ip), vehicle: other, higher = longer survival).

As to `O=NN(CCCl)C(=O)Nc1ccc2c(c1)OCO2`, the T/C is, setting by setting: (endpoint: median survival time, dose: 3.13 mg/kg/injection, schedule: Q01DX009 (ip), vehicle: saline with Tween-80, higher = longer survival) 98 % of control; under setting [1], 116 % of control; under setting [2], 102 % of control.

Take `CN(CC(=O)O)C(=N)N`: the T/C reads like this: (endpoint: mean tumor weight, dose: 250.0 mg/kg/injection, schedule: Q01DX011 (ip), vehicle: saline, higher = larger tumour) 57 % of control; (endpoint: mean tumor weight, dose: 500.0 mg/kg/injection, schedule: Q01DX011 (ip), vehicle: saline, higher = larger tumour) 53 % of control; (endpoint: mean tumor weight, dose: 1000.0 mg/kg/injection, schedule: Q01DX011 (ip), vehicle: saline, higher = larger tumour) 67 % of control.

For the compound `COc1ccc(Nc2ccnc3cc(Cl)ccc23)cc1CN(CCCl)CCCl`, the T/C by setting is: (endpoint: mean tumor weight, dose: 0.06 mg/kg/injection, schedule: Q01DX011 (ip), vehicle: other, higher = larger tumour) 113 % of control; (endpoint: mean tumor weight, dose: 0.12 mg/kg/injection, schedule: Q01DX011 (ip), vehicle: other, higher = larger tumour) 94 % of control; (endpoint: mean tumor weight, dose: 0.25 mg/kg/injection, schedule: Q01DX011 (ip), vehicle: other, higher = larger tumour) 85 % of control; (endpoint: mean tumor weight, dose: 0.5 mg/kg/injection, schedule: Q01DX011 (ip), vehicle: other, higher = larger tumour) 26 % of control and 44 % of control; (endpoint: mean tumor weight, dose: 1.0 mg/kg/injection, schedule: Q01DX011 (ip), vehicle: other, higher = larger tumour) 32 % of control.

In the case of `COc1cccc2c1C(=O)c1c(O)c3c(c(O)c1C2=O)C[C@@](O)(C(=O)CO)C[C@@H]3OC1CC(N)C(O)C(C)O1` (some centres not stated), the T/C was 88 % of control (endpoint: median survival time, dose: 0.03 mg/kg/injection, schedule: Q01DX009 (ip), vehicle: saline, higher = longer survival); 88 % of control (endpoint: median survival time, dose: 0.06 mg/kg/injection, schedule: Q01DX009 (ip), vehicle: saline, higher = longer survival); 100 % of control (endpoint: median survival time, dose: 0.12 mg/kg/injection, schedule: Q01DX009 (ip), vehicle: saline, higher = longer survival); 105 % of control (endpoint: median survival time, dose: 0.25 mg/kg/injection, schedule: Q01DX009 (ip), vehicle: saline, higher = longer survival); 113 % of control (endpoint: median survival time, dose: 0.25 mg/kg/injection, schedule: Q08HX024 (ip), vehicle: saline, higher = longer survival); 182 % of control (endpoint: median survival time, dose: 0.5 mg/kg/injection, schedule: Q08HX024 (ip), vehicle: saline, higher = longer survival). Besides, the T/C runs as follows: (endpoint: median survival time, dose: 1.0 mg/kg/injection, schedule: Q08HX024 (ip), vehicle: saline, higher = longer survival) 89 % of control; (endpoint: median survival time, dose: 1.92 mg/kg/injection, schedule: Q04DX003 (ip), vehicle: saline, higher = longer survival) 104 % of control and 106 % of control; (endpoint: median survival time, dose: 1.92 mg/kg/injection, schedule: Q04DX003 (iv), vehicle: saline, higher = longer survival) 93 % of control and 108 % of control; (endpoint: median survival time, dose: 2.74 mg/kg/injection, schedule: Q04DX003 (ip), vehicle: saline, higher = longer survival) 99 % of control and 103 % of control; (endpoint: median survival time, dose: 2.74 mg/kg/injection, schedule: Q04DX003 (iv), vehicle: saline, higher = longer survival) 99 % of control and 111 % of control; (endpoint: median survival time, dose: 3.36 mg/kg/injection, schedule: Q01DX001 (ip), vehicle: saline, higher = longer survival) 101 % of control and 102 % of control. The T/C reads like this: (endpoint: median survival time, dose: 3.36 mg/kg/injection, schedule: Q01DX001 (iv), vehicle: saline, higher = longer survival) 101 % of control and 105 % of control; (endpoint: median survival time, dose: 3.9 mg/kg/injection, schedule: Q04DX003 (ip), vehicle: saline, higher = longer survival) 105 % of control and 123 % of control; (endpoint: median survival time, dose: 3.9 mg/kg/injection, schedule: Q04DX003 (iv), vehicle: saline, higher = longer survival) 108 % of control and 113 % of control; (endpoint: median survival time, dose: 4.8 mg/kg/injection, schedule: Q01DX001 (ip), vehicle: saline, higher = longer survival) 98 % of control and 102 % of control; (endpoint: median survival time, dose: 4.8 mg/kg/injection, schedule: Q01DX001 (iv), vehicle: saline, higher = longer survival) 90 % of control and 102 % of control; (endpoint: median survival time, dose: 5.6 mg/kg/injection, schedule: Q04DX003 (iv), vehicle: saline, higher = longer survival) 105 % of control. For the same compound, the T/C is, setting by setting: (endpoint: median survival time, dose: 6.86 mg/kg/injection, schedule: Q01DX001 (ip), vehicle: saline, higher = longer survival) 117 % of control; (endpoint: median survival time, dose: 6.86 mg/kg/injection, schedule: Q01DX001 (iv), vehicle: saline, higher = longer survival) 111 % of control and 114 % of control; (endpoint: median survival time, dose: 9.8 mg/kg/injection, schedule: Q01DX001 (iv), vehicle: saline, higher = longer survival) 105 % of control; (endpoint: median survival time, dose: 14.0 mg/kg/injection, schedule: Q01DX001 (ip), vehicle: saline, higher = longer survival) 99 % of control.

Consider `C=C(C)C12OC3(c4ccccc4)OC1C1C4OC4(CO)C(O)C4(O)C(=O)C(C)=CC4C1(O3)C(C)C2OC(=O)c1ccccc1` (configuration not stated), for which the T/C was 100 % of control (endpoint: median survival time, dose: 0.1 mg/kg/injection, schedule: Q01DX009 (ip), vehicle: saline, higher = longer survival); 100 % of control (endpoint: median survival time, dose: 0.2 mg/kg/injection, schedule: Q01DX009 (ip), vehicle: saline, higher = longer survival); 100 % of control (endpoint: median survival time, dose: 0.4 mg/kg/injection, schedule: Q01DX009 (ip), vehicle: saline, higher = longer survival); 94 % of control (endpoint: median survival time, dose: 0.8 mg/kg/injection, schedule: Q01DX009 (ip), vehicle: saline, higher = longer survival).

As to `CC(C)CNc1ccc(S(=O)(=O)c2ccc(NCC(C)C)c([N+](=O)[O-])c2)cc1[N+](=O)[O-]`, the T/C is, setting by setting: under setting [1], 110 % of control; under setting [2], 103 % of control; (endpoint: median survival time, dose: 25.0 mg/kg/injection, schedule: Q01DX009 (ip), vehicle: saline with Tween-80, higher = longer survival) 109 % of control; (endpoint: median survival time, dose: 50.0 mg/kg/injection, schedule: Q01DX009 (ip), vehicle: saline with Tween-80, higher = longer survival) 86 % of control.

As to `COC(=O)[C@H]1[C@H]2C[C@@H]3c4[nH]c5cc(OC)ccc5c4CCN3C[C@H]2C[C@@H](OC(=O)c2cc(OC)c(OC)c(OC)c2)[C@@H]1OC`, the T/C is 91 % of control (endpoint: median survival time, dose: 0.25 mg/kg/injection, schedule: Q01DX009 (ip), vehicle: Klucel (hydroxypropylcellulose) (HPC), higher = longer survival); 97 % of control and 243 % of control (endpoint: median survival time, dose: 0.5 mg/kg/injection, schedule: Q01DX009 (ip), vehicle: Klucel (hydroxypropylcellulose) (HPC), higher = longer survival); 103 % of control (endpoint: median survival time, dose: 1.0 mg/kg/injection, schedule: Q01DX009 (ip), vehicle: Klucel (hydroxypropylcellulose) (HPC), higher = longer survival); 96 % of control and 243 % of control (endpoint: median survival time, dose: 2.0 mg/kg/injection, schedule: Q01DX009 (ip), vehicle: Klucel (hydroxypropylcellulose) (HPC), higher = longer survival).

`O=c1cc(-c2ccccc2)oc2ccc(O)cc12`: the T/C is 109 % of control (endpoint: mean tumor weight, dose: 3.13 mg/kg/injection, schedule: Q01DX011 (ip), vehicle: saline, higher = larger tumour); 68 % of control (endpoint: mean tumor weight, dose: 6.25 mg/kg/injection, schedule: Q01DX011 (ip), vehicle: saline, higher = larger tumour); 77 % of control (endpoint: mean tumor weight, dose: 25.0 mg/kg/injection, schedule: Q01DX010 (ip), vehicle: saline, higher = larger tumour); 119 % of control (endpoint: mean tumor weight, dose: 25.0 mg/kg/injection, schedule: Q01DX011 (ip), vehicle: saline, higher = larger tumour); 101 % of control (endpoint: mean tumor weight, dose: 50.0 mg/kg/injection, schedule: Q01DX010 (ip), vehicle: saline, higher = larger tumour); 86 % of control (endpoint: mean tumor weight, dose: 100.0 mg/kg/injection, schedule: Q01DX010 (ip), vehicle: saline, higher = larger tumour). The T/C (endpoint: mean tumor weight, dose: 200.0 mg/kg/injection, schedule: Q01DX010 (ip), vehicle: saline, higher = larger tumour) was 97 % of control.

As to `O=S(=O)(c1ccc(NC(=S)N/N=C/c2ccccc2O)cc1)N1CCCCC1`, the T/C runs as follows: (endpoint: median survival time, dose: 12.5 mg/kg/injection, schedule: Q01DX009 (ip), vehicle: olive oil, sesame oil, peanut oil, higher = longer survival) 98 % of control; (endpoint: median survival time, dose: 25.0 mg/kg/injection, schedule: Q01DX009 (ip), vehicle: olive oil, sesame oil, peanut oil, higher = longer survival) 90 % of control; (endpoint: median survival time, dose: 50.0 mg/kg/injection, schedule: Q01DX009 (ip), vehicle: olive oil, sesame oil, peanut oil, higher = longer survival) 87 % of control; (endpoint: median survival time, dose: 200.0 mg/kg/injection, schedule: Q01DX009 (ip), vehicle: olive oil, sesame oil, peanut oil, higher = longer survival) 91 % of control.

On to `Cc1nnc(NS(=O)(=O)c2ccc(N=Nc3nc4[nH]c(N)nc(=S)c4[nH]3)cc2)s1`, for which the T/C runs as follows: (endpoint: median survival time, dose: 25.0 mg/kg/injection, schedule: Q01DX009 (ip), vehicle: saline, higher = longer survival) 109 % of control; (endpoint: median survival time, dose: 50.0 mg/kg/injection, schedule: Q01DX009 (ip), vehicle: saline, higher = longer survival) 106 % of control; (endpoint: median survival time, dose: 100.0 mg/kg/injection, schedule: Q01DX009 (ip), vehicle: saline, higher = longer survival) 98 % of control; (endpoint: median survival time, dose: 200.0 mg/kg/injection, schedule: Q01DX009 (ip), vehicle: saline, higher = longer survival) 98 % of control.
